Calls of active or inactive are those of the source. The calls are words filed in the database; no cut-off is given here.
How the values were obtained:
[1] = target: T1, Indoleamine 2,3-dioxygenase 1 (Homo sapiens, UniProt P14902); assay: Inhibition of human IDO1
Target sequence in this assay (P14902 whole entry): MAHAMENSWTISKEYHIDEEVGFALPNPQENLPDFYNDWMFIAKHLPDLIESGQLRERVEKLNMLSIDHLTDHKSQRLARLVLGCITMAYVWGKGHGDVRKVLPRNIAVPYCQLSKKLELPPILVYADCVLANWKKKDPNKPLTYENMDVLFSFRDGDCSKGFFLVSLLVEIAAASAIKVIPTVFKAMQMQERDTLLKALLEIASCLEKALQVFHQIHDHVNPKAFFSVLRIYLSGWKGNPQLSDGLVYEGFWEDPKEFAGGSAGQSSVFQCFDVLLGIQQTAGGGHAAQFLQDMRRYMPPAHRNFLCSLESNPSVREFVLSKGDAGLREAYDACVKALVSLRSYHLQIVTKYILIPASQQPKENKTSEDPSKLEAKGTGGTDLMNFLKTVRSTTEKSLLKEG

[2] = target: T2, Tryptophan 2,3-dioxygenase (Homo sapiens, UniProt P48775); assay: Inhibition of human TDO
Target sequence in this assay (P48775 whole entry): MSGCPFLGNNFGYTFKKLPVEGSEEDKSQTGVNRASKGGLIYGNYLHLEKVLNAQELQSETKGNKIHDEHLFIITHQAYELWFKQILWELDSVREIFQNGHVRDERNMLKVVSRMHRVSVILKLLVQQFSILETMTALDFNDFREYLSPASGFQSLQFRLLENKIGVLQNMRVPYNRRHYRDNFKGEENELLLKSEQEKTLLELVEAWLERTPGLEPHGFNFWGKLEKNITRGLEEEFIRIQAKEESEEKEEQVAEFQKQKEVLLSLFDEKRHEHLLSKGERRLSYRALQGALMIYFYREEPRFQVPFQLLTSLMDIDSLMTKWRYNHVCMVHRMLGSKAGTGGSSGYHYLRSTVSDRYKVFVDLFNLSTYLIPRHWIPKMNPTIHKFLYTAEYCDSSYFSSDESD

MOLM-13 = assay: Cytotoxicity against human MOLM-13 cells assessed as inhibition of cell growth incubated for 24 hrs by MTT assay; format: functional, cell-based; details: MOLM-13, 24 h
[3] = target: DNA-dependent protein kinase catalytic subunit (Homo sapiens) (UniProt P78527); assay: Inhibition of human DNA-PK at 2 uM by DiscoveryX Kinomescan assay relative to control
[4] = target: Tyrosine-protein kinase Yes (Homo sapiens) (UniProt P07947); assay: Inhibition of human YES at 2 uM by DiscoveryX Kinomescan assay relative to control
Sequence of Tyrosine-protein kinase Yes (Homo sapiens) (P07947 2-543 limits assumed): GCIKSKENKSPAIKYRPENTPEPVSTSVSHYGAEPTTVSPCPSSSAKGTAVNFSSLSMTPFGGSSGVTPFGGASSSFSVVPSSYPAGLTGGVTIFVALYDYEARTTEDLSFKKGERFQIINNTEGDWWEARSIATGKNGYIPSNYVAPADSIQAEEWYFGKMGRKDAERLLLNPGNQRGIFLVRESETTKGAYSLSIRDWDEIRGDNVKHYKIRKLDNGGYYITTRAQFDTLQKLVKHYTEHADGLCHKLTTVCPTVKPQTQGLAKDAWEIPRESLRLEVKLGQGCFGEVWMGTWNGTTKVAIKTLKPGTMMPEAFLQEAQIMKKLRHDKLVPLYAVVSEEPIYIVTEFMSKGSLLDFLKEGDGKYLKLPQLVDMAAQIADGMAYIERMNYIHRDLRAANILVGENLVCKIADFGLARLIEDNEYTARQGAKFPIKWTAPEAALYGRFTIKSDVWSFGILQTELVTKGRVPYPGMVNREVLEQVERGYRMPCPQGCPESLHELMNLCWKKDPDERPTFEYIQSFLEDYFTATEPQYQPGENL

[5] = target: T1, Indoleamine 2,3-dioxygenase 1; assay: Inhibition of N-terminal hexa-histidine tagged human IDO1 (12 to 403 residues) expressed in Escherichia coli Transetta (DE3) using L-tryptophan as substrate preincubated with enzyme for 10 mins followed by substrate addition and measured after 30 to 60 mins by microplate reader analysis
Target sequence in this assay (P14902 whole entry): as the sequence (P14902 whole entry) above

[6] = target: Tyrosine-protein kinase receptor UFO (Homo sapiens) (UniProt P30530); assay: Inhibition of human AXL at 2 uM by DiscoveryX Kinomescan assay relative to control
H22 = assay: Cytotoxicity against mouse H22 cells assessed as inhibition of cell growth incubated for 24 hrs by MTT assay; format: functional, cell-based; details: H22, 24 h
[7] = Cytotoxicity against […] cells assessed as inhibition of cell growth incubated for 24 hrs by MTT assay; format: functional, cell-based; details: Mus musculus, Hepa1-6, 24 h
[8] = target: Serine/threonine-protein kinase B-raf (Homo sapiens) (UniProt P15056); assay: Inhibition of human B-Raf at 2 uM by DiscoveryX Kinomescan assay relative to control
[9] = target: Vascular endothelial growth factor receptor 2 (Homo sapiens) (UniProt P35968); assay: Inhibition of human KDR at 2 uM by DiscoveryX Kinomescan assay relative to control
[10] = target: Tyrosine-protein kinase Lyn (Homo sapiens) (UniProt P07948); assay: Inhibition of human LYN at 2 uM by DiscoveryX Kinomescan assay relative to control
Sequence of Tyrosine-protein kinase Lyn (Homo sapiens) (P07948 2-512 limits assumed): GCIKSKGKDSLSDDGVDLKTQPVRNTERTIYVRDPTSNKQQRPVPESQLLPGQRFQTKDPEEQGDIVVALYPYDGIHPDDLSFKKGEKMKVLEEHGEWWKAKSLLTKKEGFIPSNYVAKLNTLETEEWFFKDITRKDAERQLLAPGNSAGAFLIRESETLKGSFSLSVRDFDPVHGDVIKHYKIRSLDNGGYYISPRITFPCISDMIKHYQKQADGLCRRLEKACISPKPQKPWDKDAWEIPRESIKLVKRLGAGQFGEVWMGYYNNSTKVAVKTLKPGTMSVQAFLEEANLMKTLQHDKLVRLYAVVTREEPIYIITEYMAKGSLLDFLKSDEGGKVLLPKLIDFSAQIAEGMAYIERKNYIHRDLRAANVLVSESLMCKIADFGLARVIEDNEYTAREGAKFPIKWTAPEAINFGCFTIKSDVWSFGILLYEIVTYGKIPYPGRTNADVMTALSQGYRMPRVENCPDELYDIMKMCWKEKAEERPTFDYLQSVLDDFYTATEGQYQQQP

[11] = target: RAF proto-oncogene serine/threonine-protein kinase (Homo sapiens) (UniProt P04049); assay: Inhibition of human c-Raf at 2 uM by DiscoveryX Kinomescan assay relative to control
Jurkat = assay: Cytotoxicity against human Jurkat cells assessed as inhibition of cell growth incubated for 24 hrs by MTT assay; format: functional, cell-based
[12] = target: T2, Tryptophan 2,3-dioxygenase; assay: Inhibition of N-terminal hexa-histidine tagged human TDO (19 to 388 residues) expressed in Escherichia coli Transetta (DE3) using L-tryptophan as substrate preincubated with enzyme for 10 mins followed by substrate addition and measured after 30 to 60 mins by microplate reader analysis
Target sequence in this assay (P48775 whole entry): as the sequence (P48775 whole entry) above

[13] = target: Tyrosine-protein kinase JAK3 (Homo sapiens) (UniProt P52333); assay: Inhibition of human JAK3 at 2 uM by DiscoveryX Kinomescan assay relative to control
[14] = target: Receptor-type tyrosine-protein kinase FLT3 (Homo sapiens) (UniProt P36888); assay: Inhibition of human FLT3 at 2 uM by DiscoveryX Kinomescan assay relative to control
HepG2 = assay: Cytotoxicity against human HepG2 cells assessed as inhibition of cell growth incubated for 24 hrs by MTT assay; format: functional, cell-based; details: HepG2, 24 h
[15] = target: Serine/threonine-protein kinase pim-2 (Homo sapiens) (UniProt Q9P1W9); assay: Inhibition of human PIM-2 at 2 uM by DiscoveryX Kinomescan assay relative to control
Sequence of Serine/threonine-protein kinase pim-2 (Homo sapiens) (Q9P1W9 whole entry, looked up): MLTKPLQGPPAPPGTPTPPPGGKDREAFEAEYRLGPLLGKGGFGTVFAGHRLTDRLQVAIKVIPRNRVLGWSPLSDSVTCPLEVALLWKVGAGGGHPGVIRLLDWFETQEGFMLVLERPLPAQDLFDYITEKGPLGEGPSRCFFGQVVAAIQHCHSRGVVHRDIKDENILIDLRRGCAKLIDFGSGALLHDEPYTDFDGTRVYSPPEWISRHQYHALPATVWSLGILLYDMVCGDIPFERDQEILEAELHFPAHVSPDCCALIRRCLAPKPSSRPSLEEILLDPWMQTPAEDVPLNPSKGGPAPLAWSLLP

[16] = target: Serine/threonine-protein kinase pim-1 (Homo sapiens) (UniProt P11309); assay: Inhibition of human PIM-1 at 2 uM by DiscoveryX Kinomescan assay relative to control
[17] = target: T1, Indoleamine 2,3-dioxygenase 1; assay: Inhibition of N-terminal hexa-histidine tagged human IDO1 (12 to 403 residues) expressed in Escherichia coli Transetta (DE3) using L-tryptophan as substrate at 10 uM preincubated with enzyme for 10 mins followed by substrate addition and measured after 30 to 60 mins by microplate reader analysis relative to control; details: time 40-70 min
Target sequence in this assay (P14902 whole entry, looked up): as the sequence (P14902 whole entry) above

[18] = target: Mast/stem cell growth factor receptor Kit (Homo sapiens) (UniProt P10721); assay: Inhibition of human c-KIT at 2 uM by DiscoveryX Kinomescan assay relative to control
[19] = system: Receptor-type tyrosine-protein kinase FLT3 (Homo sapiens), P36888 [D835Y]; assay: Inhibition of human FLT3 D835Y mutant at 2 uM by DiscoveryX Kinomescan assay relative to control
[20] = target: Tyrosine-protein kinase JAK1 (Homo sapiens) (UniProt P23458); assay: Inhibition of human JAK1 at 2 uM by DiscoveryX Kinomescan assay relative to control
[21] = target: T2, Tryptophan 2,3-dioxygenase; assay: Inhibition of N-terminal hexa-histidine tagged human TDO (19 to 388 residues) expressed in Escherichia coli Transetta (DE3) using L-tryptophan as substrate at 10 uM preincubated with enzyme for 10 mins followed by substrate addition and measured after 30 to 60 mins by microplate reader analysis relative to control; details: time 40-70 min
Target sequence in this assay (P48775 whole entry, looked up): as the sequence (P48775 whole entry) above

[22] = target: Tyrosine-protein kinase JAK2 (Homo sapiens) (UniProt O60674); assay: Inhibition of human JAK2 at 2 uM by DiscoveryX Kinomescan assay relative to control
Sequence of Tyrosine-protein kinase JAK2 (Homo sapiens) (O60674 whole entry): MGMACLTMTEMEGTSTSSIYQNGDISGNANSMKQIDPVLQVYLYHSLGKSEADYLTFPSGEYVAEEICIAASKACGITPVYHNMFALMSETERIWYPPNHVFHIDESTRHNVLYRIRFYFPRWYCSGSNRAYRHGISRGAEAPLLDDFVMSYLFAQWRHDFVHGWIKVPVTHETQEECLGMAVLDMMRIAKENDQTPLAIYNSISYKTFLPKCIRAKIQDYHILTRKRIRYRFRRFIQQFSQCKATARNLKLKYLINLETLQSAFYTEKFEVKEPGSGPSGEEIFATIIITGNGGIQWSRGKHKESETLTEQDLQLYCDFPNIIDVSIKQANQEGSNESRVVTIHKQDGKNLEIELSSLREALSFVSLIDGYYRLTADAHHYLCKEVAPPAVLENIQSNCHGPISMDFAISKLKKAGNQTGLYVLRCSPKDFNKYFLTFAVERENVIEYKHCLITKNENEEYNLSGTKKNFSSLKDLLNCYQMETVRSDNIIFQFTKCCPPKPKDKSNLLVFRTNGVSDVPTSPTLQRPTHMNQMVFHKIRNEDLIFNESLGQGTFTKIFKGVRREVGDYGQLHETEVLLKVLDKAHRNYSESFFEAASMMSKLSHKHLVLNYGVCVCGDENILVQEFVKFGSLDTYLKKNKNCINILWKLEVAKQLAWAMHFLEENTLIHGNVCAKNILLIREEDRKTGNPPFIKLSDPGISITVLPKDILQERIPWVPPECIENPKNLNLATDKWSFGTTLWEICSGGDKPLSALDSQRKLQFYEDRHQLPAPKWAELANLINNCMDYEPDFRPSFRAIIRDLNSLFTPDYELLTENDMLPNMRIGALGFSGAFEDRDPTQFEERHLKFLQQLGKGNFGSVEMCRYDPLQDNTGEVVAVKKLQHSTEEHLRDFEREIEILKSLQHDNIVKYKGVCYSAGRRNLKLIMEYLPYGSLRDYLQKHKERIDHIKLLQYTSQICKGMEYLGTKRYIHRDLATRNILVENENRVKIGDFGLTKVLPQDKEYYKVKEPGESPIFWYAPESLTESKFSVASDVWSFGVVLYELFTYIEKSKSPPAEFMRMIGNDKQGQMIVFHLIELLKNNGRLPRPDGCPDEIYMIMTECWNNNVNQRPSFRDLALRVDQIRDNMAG

B16 = assay: Cytotoxicity against mouse B16 cells assessed as inhibition of cell growth incubated for 24 hrs by MTT assay; format: functional, cell-based; details: B16, 24 h
[23] = target: T1, Indoleamine 2,3-dioxygenase 1; assay: Inhibition of N-terminal hexa-histidine tagged human IDO1 (12 to 403 residues) expressed in Escherichia coli Transetta (DE3) using L-tryptophan as substrate at 100 uM preincubated with enzyme for 10 mins followed by substrate addition and measured after 30 to 60 mins by microplate reader analysis relative to control; details: time 40-70 min
Target sequence in this assay (P14902 whole entry, looked up): as the sequence (P14902 whole entry) above

[24] = target: T2, Tryptophan 2,3-dioxygenase; assay: Inhibition of N-terminal hexa-histidine tagged human TDO (19 to 388 residues) expressed in Escherichia coli Transetta (DE3) using L-tryptophan as substrate at 100 uM preincubated with enzyme for 10 mins followed by substrate addition and measured after 30 to 60 mins by microplate reader analysis relative to control; details: time 40-70 min
Target sequence in this assay (P48775 whole entry, looked up): as the sequence (P48775 whole entry) above

[25] = target: Tyrosine-protein kinase BTK (Homo sapiens) (UniProt Q06187); assay: Inhibition of human BTK at 2 uM by DiscoveryX Kinomescan assay relative to control
Sequence of Tyrosine-protein kinase BTK (Homo sapiens) (Q06187 whole entry): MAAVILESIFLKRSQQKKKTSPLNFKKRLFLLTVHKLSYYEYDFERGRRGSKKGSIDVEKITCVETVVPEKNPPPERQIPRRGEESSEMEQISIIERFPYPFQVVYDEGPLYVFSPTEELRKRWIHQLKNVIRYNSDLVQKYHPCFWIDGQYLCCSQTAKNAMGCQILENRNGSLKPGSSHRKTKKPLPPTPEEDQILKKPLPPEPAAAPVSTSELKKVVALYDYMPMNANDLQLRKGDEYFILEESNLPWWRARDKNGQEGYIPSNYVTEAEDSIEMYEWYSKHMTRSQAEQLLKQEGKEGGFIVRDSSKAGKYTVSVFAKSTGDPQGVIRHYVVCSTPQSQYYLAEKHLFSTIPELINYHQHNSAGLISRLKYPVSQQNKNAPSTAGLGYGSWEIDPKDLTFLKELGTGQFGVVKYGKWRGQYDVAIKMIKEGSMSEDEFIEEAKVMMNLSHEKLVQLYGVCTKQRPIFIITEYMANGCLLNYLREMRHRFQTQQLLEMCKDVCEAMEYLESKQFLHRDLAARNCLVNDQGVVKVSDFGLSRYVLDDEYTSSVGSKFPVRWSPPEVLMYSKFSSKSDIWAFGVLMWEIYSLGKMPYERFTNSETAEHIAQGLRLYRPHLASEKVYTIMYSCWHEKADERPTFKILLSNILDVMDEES

[26] = target: Platelet-derived growth factor receptor alpha (Homo sapiens) (UniProt P16234); assay: Inhibition of human PDGFRalpha at 2 uM by DiscoveryX Kinomescan assay relative to control
CT26 [27] = assay: Antitumor activity against mouse CT26 cells implanted in BALB/c mouse assessed as reduction in tumor weight at 12.5 to 50 mg/kg, IG administered every one day for 9 days and measured every 3 days by vernier caliper analysis; format: functional, organism-based; details: dose 12.5-50 mg/kg, time 9.0 day
[28] = target: T2, Tryptophan 2,3-dioxygenase; assay: Inhibition of TDO in HEK293-A cells transfected with pCMV-TDO2; format: cell-based
Target sequence in this assay (P48775 whole entry): as the sequence (P48775 whole entry) above

HEK293 = assay: Cytotoxicity against HEK293 cells assessed as inhibition of cell growth at <10 uM incubated for 24 hrs by MTT assay; format: toxicity, cell-based; details: human, hek293, 24 h
CT26 [29] = assay: Antitumor activity against mouse CT26 cells implanted in BALB/c mouse assessed as reduction in tumor volume at 12.5 to 50 mg/kg, IG administered every one day for 9 days and measured every 3 days by vernier caliper analysis; format: functional, organism-based; details: dose 12.5-50 mg/kg, time 9.0 day
CT26 [30] = assay: Antitumor activity against mouse CT26 cells implanted in BALB/c mouse assessed as inhibition of tumor volume at 25 mg/kg, IG administered every one day for 9 days and measured every 3 days by vernier caliper analysis relative to control; format: functional; details: CT26, po, 216 h, time 9 day
CT26 [31] = assay: Downregulation of TNF-alpha expression in tumor of BALB/c mouse implanted with mouse CT26 cells at 12.5 to 50 mg/kg, IG administered every one day for 9 days by Hematoxylin staining based immunohistochemistry analysis; format: functional, organism-based; details: dose 12.5-50 mg/kg, time 9.0 day
[32] = Toxicity in BALB/c mouse implanted with mouse CT26 cells assessed as reduction in body weight at 12.5 to 50 mg/kg, IG administered every one day for 9 days and measured every 3 days; format: organism-based; details: in vivo, po, 216 h, dose 12.5-50 mg/kg, time 9 day
CT26 [33] = assay: Upregulation of CD8 expression in tumor of BALB/c mouse implanted with mouse CT26 cells at 12.5 to 50 mg/kg, IG administered every one day for 9 days by Hematoxylin staining based immunohistochemistry analysis; format: functional, organism-based; details: dose 12.5-50 mg/kg, time 9.0 day
CT26 [34] = assay: Downregulation of Foxp3 expression in tumor of BALB/c mouse implanted with mouse CT26 cells at 12.5 to 50 mg/kg, IG administered every one day for 9 days by Hematoxylin staining based immunohistochemistry analysis; format: functional, organism-based; details: dose 12.5-50 mg/kg, time 9.0 day
CT26 [35] = assay: Antitumor activity against mouse CT26 cells implanted in BALB/c mouse assessed as inhibition of tumor volume at 30 mg/kg, IG administered every one day for 9 days and measured every 3 days by vernier caliper analysis relative to control; format: functional; details: CT26, po, 216 h, time 9 day

| SMILES | IC50 (MOLM-13) | IC50 [5] | IC50 (H22) | IC50 [7] | IC50 (Jurkat) | IC50 [12] | IC50 (HepG2) | inhibition [17] | inhibition [21] | IC50 (B16) | inhibition [23] | inhibition [24] | also measured |
| --- | --- | --- | --- | --- | --- | --- | --- | --- | --- | --- | --- | --- | --- |
| O[C@@H]1c2ccnn2CC[C@H]1[C@H]1c2ccccc2-c2cncn21 |  |  |  |  |  |  |  |  |  |  |  |  | IC50 [1]: 4.5 µM; IC50 [2]: 0.13 µM |
| CC(C(=O)c1ccc(O)cc1)C1(O)C(=O)Nc2c(Cl)cc(Cl)cc21 (centres undefined) |  |  |  |  |  |  |  |  |  |  |  |  | Ki [1]: > 1 µM; Ki [2]: > 1 µM |
| O=[N+]([O-])c1ccccc1CNc1cc(C(F)(F)F)cc2[nH]ncc12 | 2.35 µM | 13.9 µM | 9.01 µM | 7.58 µM | > 20 µM | 2.55 µM | 7.76 µM | 35% | 89% | > 20 µM | 76% | 95% | inhibition [3]: 0%; inhibition [4]: 33%; inhibition [6]: 33%; inhibition [8]: 27%; inhibition [9]: 100%; inhibition [10]: 50%; inhibition [11]: 31%; inhibition [13]: 78%; inhibition [14]: 93%; inhibition [15]: 4%; inhibition [16]: 78%; inhibition [18]: 61%; inhibition [19]: 96%; inhibition [20]: 66%; inhibition [22]: 35%; inhibition [25]: 12%; inhibition [26]: 23% |
| Cc1ccc(CNc2cc(C(F)(F)F)cc3[nH]ncc23)c([N+](=O)O)c1 | 3.43 µM | > 100 µM | 1.34 µM | 5.08 µM | 7.25 µM | 0.62 µM | 0.54 µM | 36% | 90% | 37.4 µM | 62% | 92% | Activity (CT26 [27]): Active; IC50 [28]: 0.06 µM; Activity (HEK293): Non-Toxic; Activity (CT26 [29]): Active; inhibition in vivo at 25 mg/kg (CT26 [30]): 76.9%; Activity (CT26 [31]): Active; Activity [32]: Non-Toxic; Activity (CT26 [33]): Active; Activity (CT26 [34]): Active |
| NC(=O)Nc1ccc(-c2c[nH]c3cc(F)ccc23)cc1 |  |  |  |  |  |  |  |  |  |  |  |  | IC50 [1]: 0.049 µM; IC50 [2]: 0.078 µM |
| NS(=O)(=O)NCCNc1nonc1/C(=N/O)Nc1ccc(F)c(Br)c1 [EPACADOSTAT] |  |  |  |  |  |  |  |  |  |  |  |  | inhibition in vivo at 30 mg/kg (CT26 [35]): 57.5% |
| O=[N+]([O-])c1ccc(Cl)cc1CNc1cc(C(F)(F)F)cc2[nH]ncc12 | 1.05 µM | 37.7 µM | 0.49 µM | 0.94 µM | 1.1 µM | 3.19 µM | 1.3 µM | 35% | 84% | 11.6 µM | 65% | 88% | Activity (HEK293): Non-Toxic |
| O=[N+]([O-])c1ccc(CNc2cc(Br)cc3[nH]ncc23)cc1 | > 20 µM | 6.97 µM | > 20 µM | > 20 µM | > 20 µM | 2.23 µM | > 20 µM | 63% | 87% | > 20 µM | 87% | 93% |  |
| FC(F)(F)c1cc(NC[C@H]2CCCN2)c2cn[nH]c2c1 | > 20 µM | 9.58 µM | 19.7 µM | > 20 µM | > 20 µM | 6.09 µM | 16.2 µM | 34% | 55% | > 20 µM | 83% | 84% |  |

— ChEMBL document CHEMBL5108015, “4,6-Disubstituted-1H-Indazole-4-Amine derivatives with immune-chemotherapy effect and in vivo antitumor activity” (Eur J Med Chem, 2022)
